Source: article PMC10587126, “Molecular hybridization strategy for tuning bioactive peptide function” (Communications Biology, 2023)
No end group written: not given here.

How the values were obtained:
[1] = Resistance to proteolytic degradation in fetal bovine serum; type: in vitro ADME; conditions: 25% fetal bovine serum in water, 37 °C
Procedure: Stability assays were performed following the protocol described by Torres et al.[67]. Briefly, a peptide solution was added to GIBCO fetal bovine serum diluted to 25% in water and kept at 37 °C. The degradation kinetics were monitored by liquid chromatography and the percentage of peptide remaining in each case was calculated by integrating the peptide peak area. These experiments were performed as three independent replicates, and aliquots were taken at 0, 0.5, 1, 2, 4, and 6 h.

human erythrocytes = assay: Hemolytic activity; type: cell-based; conditions: 0.1–100 μmol L^−1 in PBS, room temperature, 1 h, absorbance 405 nm
Procedure: Assays against freshly collected human erythrocytes were performed following protocols described by Pedron et al.[54]. Briefly, peptide aliquots at concentrations ranging from 0.1 to 100 μmol L^−1 were incubated with a suspension of erythrocytes at room temperature for 1 h. The samples were then centrifuged, and the absorbance of the supernatant was measured at 405 nm. […] The surfactant SDS and PBS buffer were used as positive[81],[82] and negative controls, respectively. Sodium heparin was used as an anticoagulant when collecting human blood. Three biological repeats were performed. All experiments were performed in accordance with the protocol CEUA/IB #I-1345/15 approved by the Instituto Butantan.

[2] = test system: Pseudomonas aeruginosa PAO1; assay: Broth microdilution MIC, ESKAPE pathogens; type: cell-based; conditions: strain not given (PAO1 and PA14 tested), LB, 37 °C, 24 h
Procedure: Peptides were tested in antimicrobial assays against Serratia marcescens ATCC 4112, Enterobacter cloacae β-12, Micrococcus luteus A270, Bacillus megaterium ATCC 10778, Bacillus subtilis ATCC 6633, Candida albicans MDM8, Candida tropicalis IOC 4560, Acinetobacter baumannii ATCC 19606, Escherichia coli ATCC 11775, Escherichia coli AIC221, Escherichia coli AIC222, Klebsiella pneumoniae ATCC 13883, Staphylococcus aureus ATCC 12600, Pseudomonas aeruginosa PAO1, and Pseudomonas aeruginosa PA14. All microorganisms were obtained from the American Type Culture Collection (ATCC), Instituto Butantan, São Paulo, Brazil, and the clinical isolate strains were donated from the Oswaldo Cruz Institute Collection (IOC), Rio de Janeiro, Brazil.
The minimal inhibitory concentration (MIC) against the ESKAPE pathogens was determined using the broth microdilution method[7] in Luria-Bertani (LB) medium. The MIC value was defined as the lowest concentration of peptide at which no microbial growth was observed. A. baumannii ATCC 19606, E. coli ATCC 11775, E. coli AIC221, E. coli AIC222, K. pneumoniae ATCC 13883, S. aureus ATCC 12600 P. aeruginosa PAO1, and P. aeruginosa PA14 were incubated on agar plates, and after 24 h, three isolated colonies were inoculated to 5 mL of Luria-Bertani (LB) broth and maintained at 37 °C overnight with shaking. Peptides were then added to 96-well polystyrene microtiter plates at concentrations ranging from 0 to 128 μmol L^−1, and 5 × 10^5 CFU mL^−1 of each bacterium was inoculated in each well. The plates were incubated at 37 °C for 24 h. Bacterial growth was measured using a microplate reader at 610 nm. Three independent replicates were performed.

[3] = Mouse body weight in the skin abscess infection model; type: in vivo
Procedure: The anti-infective activity of the peptides VmCT1, temporin A, VT, and TV against A. baumannii ATCC 19606 was evaluated as described by Torres et al.[7],[83] Bacteria were grown in tryptic soy broth medium to an optical density of 0.5 at 600 nm. Cells were washed twice with sterile phosphate-buffered saline (pH 7.4, 13,000 rpm for 1 min) and resuspended to a final concentration of 1 × 10^7 CFU/20 μL. To generate the skin infection, female CD-1 mice (6-weeks-old) were first anesthetized with isoflurane and their backs were shaved. Using a needle, a superficial linear abrasion was made on the shaved area of the mice to injure just the stratum corneum and the upper layer of the epidermis. An aliquot of 20 μL containing 1 × 10^7 CFU of A. baumannii was then inoculated over the wound area with a pipette tip. The next day, the infected area was treated with the peptides (i.e., VmCT1, temporin A, VT, and TV), which were administered onto the abscess at their MIC. The animals were euthanized, and the scarified skin area removed 2- and 4-days post-infection. The excised area was homogenized using a bead beater for 20 min (25 Hz) and serially diluted for CFU quantification. Eight mice were used per group (n = 8). All experiments were performed in accordance with protocol 806763 approved by the IACUC at the University of Pennsylvania.

[4] = test system: MCF-7 human breast cancer cells; assay: MTT assay, anticancer activity; type: cell-based; conditions: 37 °C; for MCF-7 4 h LD50: 4 h of incubation; for MCF-7 24 h LD50: 24 h of incubation
Procedure: The anticancer activity assays were performed using MCF-10A human breast epithelial cells and MCF-7 mammary cancer cells as previously described by Pedron et al.[78]. Briefly, the day before treatment, the cells were incubated at 37 °C and 5% CO2 for 24 h. The cells were treated with peptides ranging from 12.5 to 100 μmol L^−1 (MCF10-A cells) and 0.8 to 100 μmol L^−1 (MCF-7 cells) for 4 h and 24 h at 37 °C, and cell viability was measured using 3-(4,5-Dimethylthiazol-2-yl)-2,5-diphenyltetrazolium bromide (MTT) assays[79],[80]. Three independent replicates were performed in each case.

[5] = LC peak area, time 0 = 100, 0.5 h, replicate 1
[6] = LC peak area, time 0 = 100, 0.5 h, replicate 2
[7] = LC peak area, time 0 = 100, 0.5 h, replicate 3
[8] = LC peak area, time 0 = 100, 1 h, replicate 1
[9] = LC peak area, time 0 = 100, 1 h, replicate 2
[10] = LC peak area, time 0 = 100, 1 h, replicate 3
[11] = LC peak area, time 0 = 100, 2 h, replicate 1
[12] = LC peak area, time 0 = 100, 2 h, replicate 2
[13] = LC peak area, time 0 = 100, 2 h, replicate 3
[14] = LC peak area, time 0 = 100, 4 h, replicate 1
[15] = LC peak area, time 0 = 100, 4 h, replicate 2
[16] = LC peak area, time 0 = 100, 4 h, replicate 3
[17] = LC peak area, time 0 = 100, 6 h, replicate 1
[18] = LC peak area, time 0 = 100, 6 h, replicate 2
[19] = LC peak area, time 0 = 100, 6 h, replicate 3

Row | Substance | Peptide remaining [1, 5] | Peptide remaining [1, 6] | Peptide remaining [1, 7] | Peptide remaining [1, 8] | Peptide remaining [1, 9] | Peptide remaining [1, 10] | Peptide remaining [1, 11] | Peptide remaining [1, 12] | Peptide remaining [1, 13] | Peptide remaining [1, 14] | Peptide remaining [1, 15] | Peptide remaining [1, 16] | Peptide remaining [1, 17] | Peptide remaining [1, 18] | Peptide remaining [1, 19] | Hemolytic activity (concentration of peptide needed to kill 10% of red blood cells) (human erythrocytes) | MIC against P. aeruginosa [2] | MCF-7 4 h LD50 [4] | MCF-7 24 h LD50 [4] | other results
1 | FLGTLWGGAKGVF-NH2 [VP] | 24.2 | 22.1 | 20.2 | 14.7 | 16.0 | 11.8 | 3.6 | 3.6 | 4.4 | 0.0 | 0.0 | 0.0 | 0.0 | 0.0 | 0.0 | 100 µmol/L | 128 µM |  |  | 
2 | FLPLIGRVLSGIL-NH2 [Temporin A, reference compound] | 0 | 0 |  | 0 | 0 | 0 | 0 | 0 | 0 | 0 | 0 | 0 | 0 | 0 | 0 | 0.2 µmol/L |  | 50 µmol/L | 50 µmol/L | Peptide remaining after 30 min ([1]; LC peak area vs time 0, 30 min, three replicates): totally degraded; remaining at 0.5 h ([1]; fetal bovine serum, 25% in water, LC peak area, time 0 = 100, 0.5 h, replicate 3, read-out: Peptide remaining): 0%; Mouse body weight, normalized to the weight at the beginning of the experiment ([3]; day 0 = 100, Day 1, replicate 1): 95; Mouse body weight, normalized to the weight at the beginning of the experiment ([3]; day 0 = 100, Day 1, replicate 2): 105; Mouse body weight, normalized to the weight at the beginning of the experiment ([3]; day 0 = 100, Day 1, replicate 3): 100; Mouse body weight, normalized to the weight at the beginning of the experiment ([3]; day 0 = 100, Day 2, replicate 1): 95; Mouse body weight, normalized to the weight at the beginning of the experiment ([3]; day 0 = 100, Day 2, replicate 2): 100; Mouse body weight, normalized to the weight at the beginning of the experiment ([3]; day 0 = 100, Day 2, replicate 3): 100; Mouse body weight, normalized to the weight at the beginning of the experiment ([3]; day 0 = 100, Day 3, replicate 1): 95; Mouse body weight, normalized to the weight at the beginning of the experiment ([3]; day 0 = 100, Day 3, replicate 2): 100; Mouse body weight, normalized to the weight at the beginning of the experiment ([3]; day 0 = 100, Day 3, replicate 3): 95; Mouse body weight, normalized to the weight at the beginning of the experiment ([3]; day 0 = 100, Day 4, replicate 1): 95; Mouse body weight, normalized to the weight at the beginning of the experiment ([3]; day 0 = 100, Day 4, replicate 2): 100; Mouse body weight, normalized to the weight at the beginning of the experiment ([3]; day 0 = 100, Day 4, replicate 3): 95
3 | ILGTILGLLKGL-NH2 [Protonectin, reference compound] | 0.0 | 0.0 | 0.0 |  | 0.0 | 0.0 | 0.0 | 0.0 | 0.0 | 0.0 | 0.0 | 0.0 | 0.0 | 0.0 | 0.0 | 12.5 µmol/L | 128 µM | 25 µmol/L | 25 µmol/L | Degradation in fetal bovine serum (in words) ([1]; exposure for 6 h, LC): quickly degraded; remaining at 1 h ([1]; fetal bovine serum, 25% in water, LC peak area, time 0 = 100, 1 h, replicate 1, read-out: Peptide remaining): 0%
4 | ILGAILNVLKSLG-NH2 [PV] | 98 | 85 | 88 | 0 | 0 | 0 | 0 | 0 | 0 | 0 | 0 | 0 | 0 | 0 | 0 | 25 µmol/L | 128 µM |  |  | Peptide remaining after 1 h ([1]; LC peak area vs time 0, 1 h, three replicates): totally degraded
